Test results as given in patent US9497970B2, “Pesticide compounds” (priority 2013, dated 2016).

Tests used:
Assay type in all cases: in vivo
[1] = system: Green Peach Aphid (Myzus persicae); experiment: B.9 Green Peach Aphid (Myzus persicae), sprayed bell pepper plants; details: 120 h, infested bell pepper plants sprayed, after 5 days, in comparison with untreated controls
Description: B.9 Green Peach Aphid (Myzus persicae)
The active compounds were formulated by a Tecan liquid handler in 100% cyclohexa none as a 10,000 ppm solution supplied in tubes. The 10,000 ppm solution was serially diluted in 100% cyclohexanone to make interim solutions. These served as stock solutions for which final dilutions were made by the Tecan in 50% acetone:50% water (v/v) into 5 or 10 ml glass vials. A nonionic surfactant (Kinetic®) was included in the solution at a volume of 0.01% (v/v). The vials were then inserted into an automated electrostatic sprayer equipped with an atomizing nozzle for application to plants/insects.
Bell pepper plants at the first true-leaf stage were infested prior to treatment by placing heavily infested leaves from the main colony on top of the treatment plants. Aphids were allowed to transfer overnight to accomplish an infestation of 30-50 aphids per plant and the host leaves were removed. The infested plants were then sprayed by an automated electrostatic plant sprayer equipped with an atomizing spray nozzle. The plants were dried in the sprayer fume hood, removed, and then maintained in a growth room under fluorescent lighting in a 24-hr photoperiod at about 25° C. and about 20-40% relative humidity. Aphid mortality on the treated plants, relative to mortality on untreated control plants, was determined after 5 days.

[2] = system: Tobacco Budworm (Heliothis virescens); experiment: B.7 Tobacco Budworm (Heliothis virescens) I, microtiter plate insect diet; details: 120 h, 800 ppm, sprayed onto insect diet, 5 days, in comparison with untreated controls, read-out: mortality (egg and larval)
In short: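 96-well plates with insect diet and 15-25 H. virescens eggs; compounds in 75% water/25% DMSO sprayed onto diet at several concentrations, two replicates. Plates held at about 28±1° C. and 80±5% relative humidity for 5 days, then egg and larval mortality scored visually.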

[3] = system: Boll Weevil (Anthonomus grandis); experiment: B.3 Boll Weevil (Anthonomus grandis), microtiter plate insect diet; details: 120 h, 800 ppm, sprayed onto insect diet, 5 days, in comparison with untreated controls, read-out: mortality (egg and larval)
In short: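 Compounds in 25% DMSO/water sprayed at several concentrations onto insect diet in microtiter wells holding 5–10 A. grandis eggs, two replicates. Plates kept 5 days at about 25±1 °C and 75±5% RH. Egg and larval mortality scored visually.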

[4] = system: Diamond Back Moth (Plutella xylostella); experiment: B.1 Diamond Back Moth (Plutella xylostella), cabbage leaf dip; details: foliar, 500 ppm, 3rd instar larvae on dipped cabbage leaves, 72 hours after treatment, in comparison with untreated controls, read-out: mortality
In short: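 Cabbage leaves dipped in compound in 1:1 water:acetone with 0.01% Kinetic HV surfactant, air-dried, then infested with ten 3rd-instar larvae on moist filter paper. Mortality scored at 72 h after treatment; feeding damage rated on a 0-100% scale.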

[5] = system: Mediterranean Fruitfly (Ceratitis capitata); experiment: B.6 Mediterranean Fruitfly (Ceratitis capitata), microtiter plate insect diet; details: 120 h, 800 ppm, sprayed onto insect diet, 5 days, in comparison with untreated controls, read-out: mortality (egg and larval)
In short: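 Insect diet with 50-80 C. capitata eggs sprayed with compounds formulated in 75% water/25% DMSO, at different concentrations, two replications. Incubation at about 28±1° C and 80±5% relative humidity for 5 days, then egg and larval mortality assessed visually.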

[6] = system: Orchid thrips (dichromothrips corbetti); experiment: B.12 Orchid thrips (dichromothrips corbetti), floral-immersion technique; details: adult thrips on dipped orchid petals, 72 hours after treatment, in comparison with untreated controls
Description: B.12 Orchid thrips (dichromothrips corbetti)
Dichromothrips corbetti adults used for bioassay were obtained from a colony maintained continuously under laboratory conditions. For testing purposes, the test compound is diluted in a 1:1 mixture of acetone:water (vol:vol), plus Kinetic HV at a rate of 0.01% v/v.
Thrips potency of each compound was evaluated by using a floral-immersion technique. All petals of individual, intact orchid flowers were dipped into treatment solution and allowed to dry in Petri dishes. Treated petals were placed into individual resealable plastic along with about 20 adult thrips. All test arenas were held under continuous light and a temperature of about 28° C. for duration of the assay. After 3 days, the numbers of live thrips were counted on each petal. The percent mortality was recorded 72 hours after treatment.

[7] = system: Yellow Fever Mosquito (Aedes aegypti); experiment: whole plant or invertebrate; details: 48 h, freshly hatched larvae in tap water, 2 days, in comparison with untreated controls, read-out: mortality (larval)
Description: B.11 Yellow Fever Mosquito (Aedes aegypti)
For evaluating control of yellow fever mosquito (Aedes aegypti) the test unit consisted of 96-well-microtiter plates containing 200 μl of tap water per well and 5-15 freshly hatched A. aegypti larvae.
The active compounds were formulated using a solution containing 75% (v/v) water and 25% (v/v) DMSO. Different concentrations of formulated compounds or mixtures were sprayed onto the insect diet at 2.5 μl, using a custom built micro atomizer, at two replications.

[8] = system: Southern Armyworm (Spodoptera eridania), 2nd Instar Larvae; experiment: B.10 Southern Armyworm (Spodoptera eridania), 2nd Instar Larvae, sprayed lima bean plants; details: 96 h, 300 ppm, larvae on sprayed lima bean plants, 4 days after treatment, in comparison with untreated controls, read-out: mortality
Description: B.10 Southern Armyworm (Spodoptera eridania), 2nd Instar Larvae
The active compounds were formulated by a Tecan liquid handler in 100% cyclohexanone as a 10,000 ppm solution supplied in tubes. The 10,000 ppm solution was serially diluted in 100% cyclohexanone to make interim solutions. These served as stock solutions for which final dilutions were made by the Tecan in 50% acetone:50% water (v/v) into 5 or 10 ml glass vials. A nonionic surfactant (Kinetic®) was included in the solution at a volume of 0.01% (v/v). The vials were then inserted into an automated electrostatic sprayer equipped with an atomizing nozzle for application to plants/insects.
Lima bean plants (variety Sieva) were grown 2 plants to a pot and selected for treatment at the 1st true leaf stage. Test solutions were sprayed onto the foliage by an automated electrostatic plant sprayer equipped with an atomizing spray nozzle. The plants were dried in the sprayer fume hood and then removed from the sprayer. Each pot was placed into perforated plastic bags with a zip closure. About 10 to 11 armyworm larvae were placed into the bag and the bags zipped closed. Test plants were maintained in a growth room at about 25° C. and about 20-40% relative humidity for 4 days, avoiding direct exposure to fluorescent light (24 hour photoperiod) to prevent trapping of heat inside the bags. Mortality and reduced feeding were assessed 4 days after treatment, compared to untreated control plants.

Cc1ccc(NC(=S)N/N=C/c2ccc3c(ccc4c3ncn4-c3ccc(OC(F)(F)F)cc3)c2)c(C)c1 [C-2, 1-(2,4-dimethylphenyl)-3-[(E)-[3-[4-(trifluoromethoxy)phenyl]benzo[e]benzimidazol-7-yl]methyleneamino] thiourea]
≥ 75%: mortality at 800 ppm [1] | mortality at 800 ppm [2] | mortality at 800 ppm [3] | mortality at 500 ppm [4] | mortality at 800 ppm [5]

Cc1cccc(C)c1NC(=S)N/N=C/c1ccc2c(c1)CCc1c-2noc1-c1ccc(OC(F)(F)F)cc1 [C-7, 1-(2,6-dimethylphenyl)-3-[(E)-[3-[4-(trifluoromethoxy)phenyl]-4,5-dihydrobenzo[g][2,1]benzoxazol-7-yl]methyleneamino]thiourea]
≥ 75%: mortality at 800 ppm [1] | mortality at 500 ppm [6] | mortality at 800 ppm [2]

CCc1ccccc1NC(=S)N/N=C/c1ccc2c(ccc3c2ncn3-c2ccc(OC(F)(F)F)cc2)c1 [C-22, 3-(2-ethylphenyl)-1-[[3-[4-(trifluoromethoxy)phenyl]-9aH-benzo[e]benzimidazol-7-ylidene]methylimino] isothiourea]
≥ 75%: mortality at 800 ppm [7] | mortality at 500 ppm [6] | mortality at 800 ppm [2] | mortality at 300 ppm [8] | mortality at 800 ppm [3] | mortality at 500 ppm [4] | mortality at 800 ppm [5]

Cc1ccccc1NC(=S)N/N=C/c1ccc2c(ccc3c2ncn3-c2ccc(OC(F)(F)F)cc2)c1 [C-23, 3-(o-tolyl)-1-[[3-[4-(trifluoromethoxy)phenyl]-9aH-benzo[e]benzimidazol-7-ylidene]methylimino]isothiourea]
≥ 75%: mortality at 500 ppm [6] | mortality at 800 ppm [2] | mortality at 300 ppm [8] | mortality at 800 ppm [3] | mortality at 500 ppm [4] | mortality at 800 ppm [5]

O=[N+]([O-])c1ccccc1NC(=S)N/N=C/c1ccc2c(ccc3c2ncn3-c2ccc(OC(F)(F)F)cc2)c1 [C-31, 3-(2-nitrophenyl)-1-[[3-[4-(trifluoromethoxy)phenyl]-9aH-benzo[e]benzimidazol-7-ylidene]methylimino] isothiourea]
≥ 75%: mortality at 800 ppm [1] | mortality at 800 ppm [2] | mortality at 800 ppm [3]

FC(F)(F)Oc1ccc(-n2nnc3c4ccc(/C=N/NC(=S)Nc5c(Cl)cccc5Cl)cc4ccc32)cc1 [C-57, 1-(2,6-dichlorophenyl)-3-[(E)-[3-[4-(trifluoromethoxy)phenyl]benzo[e]benzotriazol-7-yl]methyleneamino] thiourea]
≥ 75%: mortality at 800 ppm [1]

CCc1cccnc1NC(=S)N/N=C/c1ccc2c(ccc3c2ncn3-c2ccc(OC(F)(F)F)cc2)c1 [C-68, 1-(3-ethyl-2-pyridyl)-3-[(E)-[3-[4-(trifluoromethoxy)phenyl]benzo[e]benzimidazol-7-yl]methyleneamino] thiourea]
≥ 75%: mortality at 300 ppm [8] | mortality at 800 ppm [3] | mortality at 500 ppm [4] | mortality at 800 ppm [5]

Cc1cccc(C)c1NC(=S)N/N=C/c1ccc2c(ccc3c(-c4ccc(OC(F)(F)F)cc4)onc32)c1 [C-84, 1-(2,6-dimethylphenyl)-3-[(E)-[3-[4-(trifluoromethoxy)phenyl]benzo[g][2,1]benzoxazol-7-yl]methyleneamino] thiourea]
≥ 75%: mortality at 800 ppm [1] | mortality at 800 ppm [2] | mortality at 800 ppm [5]

Cc1cccc(C)c1NC(=S)N(C)/N=C/c1ccc2c(ccc3c2ncn3-c2ccc(OC(F)(F)F)cc2)c1 [C-85, 3-(2,6-dimethylphenyl)-1-methyl-1-[(E)-[3-[4-(trifluoromethoxy)phenyl]benzo [e]benzimidazol-7-yl]methyleneamino] thiourea]
≥ 75%: mortality at 800 ppm [7] | mortality at 500 ppm [6] | mortality at 800 ppm [2] | mortality at 300 ppm [8] | mortality at 800 ppm [3] | mortality at 500 ppm [4] | mortality at 800 ppm [5]

Cc1cccc([S+](C)[O-])c1NC(=S)N/N=C/c1ccc2c(ccc3c2ncn3-c2ccc(OC(F)(F)F)cc2)c1 (stereo not shown) [C-104, 1-(2-methyl-6-methylsulfinyl-phenyl)-3-[(E)-[3-[4-(trifluoromethoxy)phenyl]benzo[e]benzimidazol-7-yl]methyleneamino]thiourea]
≥ 75%: mortality at 800 ppm [7] | mortality at 500 ppm [6] | mortality at 800 ppm [2] | mortality at 300 ppm [8] | mortality at 800 ppm [3] | mortality at 500 ppm [4] | mortality at 800 ppm [5]

Cc1cccc(C)c1NC(=S)N/N=C/c1ccc2c(ccc3c2ncn3-c2ccc(Cl)cc2)c1 [C-106, 1-[(E)-[3-(4-chlorophenyl)benzo[e]benzimidazol-7-yl]methyleneamino]-3-(2,6-dimethylphenyl)thiourea]
≥ 75%: mortality at 800 ppm [7] | mortality at 800 ppm [2] | mortality at 300 ppm [8] | mortality at 800 ppm [3] | mortality at 800 ppm [5]

Cc1cccc(C)c1NC(=S)N/N=C/c1ccc2c(c1)CCc1c-2nn(C)c1-c1ccc(OC(F)(F)F)cc1 [C-107, 1-(2,6-dimethylphenyl)-3-[(E)-[2-methyl-3-[4-(trifluoromethoxy)phenyl]-4,5-dihydrobenzo[g]indazol-7-yl]methyleneamino]thiourea]
≥ 75%: mortality at 800 ppm [7] | mortality at 500 ppm [6] | mortality at 800 ppm [2] | mortality at 300 ppm [8] | mortality at 800 ppm [3] | mortality at 500 ppm [4] | mortality at 800 ppm [5]
